Literature values, collected in patent publication US6852335B2, “Folic acid in solid dosage forms” (Shaklee Corporation, priority 1999, dated 2005).

Conditions: 25° C. (The Merck Index, 12th edition)

solubility in water: approximately 1.6 mcg/ml
Structure (SMILES): Nc1nc2ncc(CNc3ccc(C(=O)N[C@@H](CCC(=O)O)C(=O)O)cc3)nc2c(=O)[nH]1 [Folic acid]
